Tests used:
in vitro = conditions: ng108-15 cells
NG108-15 cells = experiment: Uptake of mannosamine precursors and conversion to sialic acids (precursor pool, gangliosides, glycoproteins) in NG108-15 cells, HPLC; type: cell-based, mouse neuroblastoma/rat glioma hybrid
Procedure: Cells were harvested using hypertonic Ca^2+ - and Mg^2+ -free phosphate-buffered saline containing 1 mM EDTA, collected by centrifugation, and homogenized in ice-cold water using a Potter-Elvehjem glass/Teflon homogenizer. Methanol (2.6 volumes) was added, the suspension mixed and brought to ambient temperature, then chloroform (1.3 volumes, based on the original homogenate) was added and the suspension mixed vigorously. The suspension was centrifuged 30 min at 2,000×g. After collecting the supernatant, the pellet (containing precipitated proteins) was resuspended in water or concentrated ammonium hydroxide and a portion was used for protein assay (BCA, Pierce, Rockford, Ill.). The supernatant was partitioned by adjusting the chloroform-methanol-water ratio to 4:8:5.6 by addition of water, mixing thoroughly, and centrifuging as above. The upper phase was collected and a portion was subjected to reverse phase chromatography, using Sep-Pak C18 cartridges (Waters, Milford, Mass.), to isolate gangliosides (Schnaar, Methods Enzymol. 230:371, 1994).
To quantify and identify sialic acids, a portion of resolublized protein, organic/aqueous soluble pool, or reverse-phase purified gangliosides was evaporated to dryness in a 500-μl polypropylene tube and 20 μl of 0.1 M HCl/0.25 M NaCl was added. One Ampliwax bead (Perkin Elmer Corp, Foster City, Calif.) per reaction was added to block evaporation, and the sample hydrolyzed for 3 h at 80° C. Released sialic acids were analyzed by injecting an aliquot (1-10 μl) onto a Dionex high pressure liquid chromatography system (Dionex Corporation, Sunnyvale, Calif.) using a HPIC-AS6 column and a pulsed amperometric detector. Elution solutions were: A, 0.75 mM NaOH; B, 200 mM NaOH; and C, 400 mM sodium acetate in 50 mM NaOH. NeuAc and NeuPr were resolved by elution with 40% A, 50% B, 10% C for 15 min at 1 ml/min. NeuGc was resolved in separate injections using step gradient elution: 0-1.8 min, 18% A, 50% B, 32% C; 2-10 min, 40% B, 60% C. Sialic acids were identified by comparison of their elution time with those of standard NeuAc, NeuPr and NeuGc and were quantified in comparison to a standard curve of commercial NeuAc (for NeuAc and NeuPr) or NeuGc.
To confirm that the quantified peaks represented sialic acids, 10 μl of acid hydrolysates were treated with 1 μl of 1 M sodium phosphate (pH 7.2) and 10 μl of 0.1 M NaOH. Neutralized samples were incubated at 37° C. for 2 h with or without 0.9 U of N-acetylneuraminic acid aldolase (Sigma), 32 μM NADH and 0.1 μg lactate dehydrogenase. Sialic acid content in the ganglioside and glycoprotein fractions is expressed per mg of total cell protein. Precursor pool sialic acid (sialic acid plus CMP-sialic acid) was calculated by subtracting the ganglioside value from the organic/aqueous pool value, both expressed per mg of cell protein.
Sialic acid is biosynthesized from the precursor sugar N-acetylmannosamine (FIG. 2). In the present invention, sialic acids are converted on live neuronal cells from NeuAc, which is a key determinant for MAG binding, to NeuGc, which is non-permissive for MAG binding. A potential NeuGc precursor, N-glycolylmannosamine monoacetate (ManNGcMA, FIG. 1, R1 =H) was tested for its ability to generate altered sialic acids in neuronal and non-neuronal cells. N-propanoylmannosamine (ManNPr) and other N-acyl mannosamine derivatives have been used to modify glycoprotein associated sialic acids to the corresponding N-acylneuraminic acid. N-propanoyl-mannosamine (ManNPr), was used as a positive control. […] Cell pellets were fractioned into lipid associated, protein associated, and intracellular (lipid and cytoplasmic which may consist of oligosaccharide-bound, free, or CMP-activated sialic acid) sialic acids and hydrolyzed to release sialic acid. The hydrolyzed samples were then analyzed by HPLC to determine sialic acid content. […]

[1] = 1 mM, 48 h, listed as ManNGc-OAc
[2] = 1 mM, longer incubation (up to 144 h)

## CC(=O)OCC(=O)N[C@@H]1C(OC(C)=O)O[C@H](COC(C)=O)[C@@H](OC(C)=O)[C@@H]1OC(C)=O (stereo partly shown) [ManNGcPA, N-glycolylmannosamine pentaacetate]
In vitro
  viability at 70 h, 1000 µM: 76%
NG108-15 cells; 0.02 mM, 48 h
  conversion of ganglioside sialic acids to the NeuGc form: ~50%
NG108-15 cells; 0.1 mM ManNGcPA vs 5 mM ManNGcMA, 48 h
  conversion to the NeuGc form relative to 5 mM ManNGcMA: ≈ 2 fold
NG108-15 cells; 0.1 mM, 48 h
  glycoprotein sialic acids as NeuGc: 19.8%
  intracellular sialic acid in the form of NeuGc: 20.6%
  total lipid associated sialic acid as NeuGc: 17%
NG108-15 cells; 0.25 mM
  protein sialic acid, average over the experiment (mean±S.D.): 3.8±1.2 nmol/mg protein
  total ganglioside sialic acid, average over the experiment (mean±S.D.): 3.2±0.7 nmol/mg total cell protein
NG108-15 cells; 0.25 mM or 1 mM, 96 h
  glycoconjugate sialic acid in the NeuGc form: > 70%
NG108-15 cells; 0.25 mM, 24 h of chase
  reversal of the conversion on withdrawal of the precursor: partial reversal of the conversion
NG108-15 cells; 0.25 mM, 48 h
  conversion of NeuAc to NeuGc in gangliosides: > 70%
NG108-15 cells; 0.25 mM, 96 h, relative to >70% in gangliosides
  conversion of NeuAc to NeuGc in glycoproteins: a similar conversion in glycoproteins
NG108-15 cells; 1 mM, 48 h
  conversion from NeuAc to NeuGc (precursor pool): 82%
NG108-15 cells; 1.0 mM, 48 h
  intracellular sialic acid in the form of NeuGc: 76.6%
NG108-15 cells; [1]
  ganglioside (lipid associated) sialic acid as NeuGc: 51.5%
  glycoprotein (protein associated) sialic acid as NeuGc: 47%
NG108-15 cells; 1 mM, 144 h
  glycoconjugate sialic acid in the NeuGc form: 80%
NG108-15 cells; [2]
  ganglioside sialic acid as NeuGc: ≈ 80%
  glycoprotein sialic acid as NeuGc: 60-70%
NG108-15 cells; 1 mM, within 24 h (remained high up to 144 h)
  sialic acid precursor pool in the NeuGc form: > 80%
NG108-15 cells; 0.1 or 1.0 mM ManNGcPA, or 5 mM ManNGcMA, 48 h
  sialic acid precursor pool size: none of these treatments significantly altered the sialic acid precursor pool size
NG108-15 cells; 0.1 or 1.0 mM, 48 h
  change in lipid or protein associated sialic acid compared to DMSO treated control: no significant decrease in cell viability, or change in lipid or protein associated sialic acid
  total ganglioside sialic acid level: not significantly altered
  total glycoprotein sialic acid level: not significantly altered
NG108-15 cells; ManNGcPA vs ManNGcMA, 48 h
  increase in potency due to peracetylation: 100 fold

Source: patent US6274568A, “Compounds for altering cell surface sialic acids and methods of use therefor” (priority 1999, dated 2001)
